Common to all, as to assay type: physicochemical
Series [1] in a line: Decolorization of methanol solution added to aqueous 1 N KOH.
The nature of series [2]: Transmission densities (R, G, B) of image-receiving components containing the dye before and after bleaching with aqueous 1 N KOH. The settings on record: for Transmission Density After Bleaching, B / Transmission Density Before Bleaching, B: blue; for Transmission Density After Bleaching, G / Transmission Density Before Bleaching, G: green; for Transmission Density After Bleaching, R / Transmission Density Before Bleaching, R: red. The text has this:
Using appropriate solvents, samples of the dye compounds prepared in Examples 12, 13, 24 and 26 were incorporated into the image-receiving layer 3 of four image-receiving components comprising the structure set forth below by mixing the solution of each compound with a solution of the graft copolymer and coating this mixture on top of the timing layer to complete each of the image-receiving components.
A transparent 4 mil polyethylene terephthalate film base coated with, in succession:
1. as a polymeric acid layer, a mixture of about 9 parts of a partial butyl ester of polyethylene/maleic anhydride copolymer and 1 part of polyvinyl butyral coated at a coverage of about 2,500 mgs./ft.^2 ;
2. a timing layer containing a 14:1 ratio of a 60-30-4-6 tetrapolymer of butylacrylate, diacetone acrylamide, styrene and methacrylic acid and polyvinyl alcohol at a coverage of 500 mgs./ft.^2 ;
3. a graft copolymer of 4-vinylpyridine and vinylbenzyltrimethylammoniumchloride grafted on hydroxyethyl cellulose in a weight ratio of 2.2/1/2.2, respectively, coated at a coverage of 300 mgs./ft.^2 to provide an imagereceiving layer and containing the selected dye compound at a coverage of 22 mgs./ft.^2.
Each of the image-receiving components containing the respective dye compounds were placed on a piece of gelatin coated Mylar, and the transmission densities for red (R), green (G) and blue (B) were recorded on a transmission densitometer. Then several drops of aqueous 1 N KOH were added to each gelatin sheet, and the image-receiving components were lightly pressed against the gelatin sheets to "bleach" the dye compounds. […]

The nature of series [3]: Bleaching rate (T1/2) in pH=12 aqueous buffer, visible spectrometer. The settings on record: selected wavelength for optical density recording, pH=12 buffer. As for the experimental part:
Also, the "bleaching" rates for the compounds of Examples 21, 23 and 24 were determined at pH=12 in terms of T1/2. By T1/2 is meant the time measured for one-half of the colored compound to decolorize. In making these determinations, a cell containing about 3 ml of pH=12 buffer (aqueous) was placed in a visible spectrometer. A sample of each compound was dissolved in methanol, and a small amount (less than 0.1 cc) of each solution was injected into the buffer. The optical densities were then recorded at a selected wavelenth value to determine T1/2.

The nature of series [4]: Persistence of colorlessness on acidification to pH 1 after decolorization in aqueous 1 N sodium hydroxide. To be noted: methanol solution decolorized with aqueous 1 N NaOH, then aqueous HCl to pH 1. The text has this: As discussed above and also in the aforementioned application, the subject compounds have the ability to decolorize completely and irreversibly in base by undergoing an irreversible cleavage reaction within a predetermined time at a predetermined pH to give a new colorless compound which remains colorless at the pH's normally encountered during processing subsequent to "bleaching" so that the new compound may be retained in a photographic film unit, e.g., a photosensitive element without the possibility of color reappearing in time. In this regard, samples of the compounds prepared in Examples 24 and 26 above were dissolved in a small amount of methanol, and aqueous 1 N sodium hydroxide was added to each solution to decolorize the compound.

The mark [5] stands for this setting: 15 to 60 seconds after aqueous 1 N KOH.
Setting [6] is: dye 22 mgs./ft.^2 in image-receiving layer.
[7] abbreviates: dye 22 mgs./ft.^2 in image-receiving layer, densitometer set at 0.00 with two gelatin coated mylar.
Setting [8] is: coating stored for over 3 months.
Where [9] appears, read: coating stored for over 3 months, bleaching time about 3 minutes, aqueous 1 N KOH.

In the case of `CC(=O)N(C)S(=O)(=O)c1ccccc1C(=C1C=C(C(O)(C(F)(F)F)C(F)(F)F)C(=O)c2ccccc21)c1cc2c3c(c1)CCCN3CCC2` [Example 9], the time to decolorize result in series [1] is reported as “approximately 5 seconds”.
Consider `COC1=CC(=C(c2ccc(N3CCOCC3)cc2)c2ccccc2S(=O)(=O)N(C)C(=O)OCCS(C)(=O)=O)C=C(OC)C1=O` [Example 12], for which, in series [2] (setting [5]), the “Transmission Density After Bleaching, B” value is recorded as “.00”; the “Transmission Density After Bleaching, G” value was “.01”; the “Transmission Density After Bleaching, R” value was “.02”. In series [2] (setting [6]), the “Transmission Density Before Bleaching, B” value is recorded as “.45” and the “Transmission Density Before Bleaching, G” value is listed as “.31”. In addition, the “Transmission Density Before Bleaching, R” value in series [2] (setting [7]) is recorded as “.00”.
Turning to `COC1=CC(=C(c2cc3c4c(c2)CCCN4CCC3)c2ccccc2S(=O)(=O)N(C)C(=O)OCCS(C)(=O)=O)C=C(OC)C1=O` [Example 13], in series [2] (setting [5]), the “Transmission Density After Bleaching, B” value is given as “.00”; the “Transmission Density After Bleaching, G” value was “.01”; the “Transmission Density After Bleaching, R” value is given as “.01”. In series [2] (setting [6]), the “Transmission Density Before Bleaching, B” value is listed as “.09” and the “Transmission Density Before Bleaching, G” value is reported as “.32”. For the same molecule, the “Transmission Density Before Bleaching, R” value in series [2] (setting [7]) is given as “.21”.
In the case of `COC1=CC(=C(c2cc(OC)c(O)c(OC)c2)c2ccccc2S(=O)(=O)N(C)C(=O)OCCS(C)(=O)=O)C=C(OC)C1=O` [Example 21], the “Wavelength (λmax-nm)” value in series [3] came out at 640 nm.
For the molecule `COC1=CC(=C(c2cc(OC)c(O)c(OC)c2)c2ccccc2S(=O)(=O)N(C)C(C)=O)C=C(OC)C1=O` [Example 23], in series [3], the “Wavelength (λmax-nm)” value is listed as 640 nm.
In the case of `CC1=CC(=C(c2cc(C)c(O)c(C)c2)c2ccccc2S(=O)(=O)N(C)C(=O)OCCS(C)(=O)=O)C=C(C)C1=O` [Example 24], in series [3], the “Wavelength (λmax-nm)” value worked out at 590 nm. Besides, in series [4], the “color after decolorization and acidification to pH 1” value was “remained colorless even at pH 1”. Further, in series [2] (setting [5]), the “Transmission Density After Bleaching, B” value was “.00”; the “Transmission Density After Bleaching, G” value is listed as “.00”; the “Transmission Density After Bleaching, R” value was “.01”. In addition, in series [2] (setting [6]), the “Transmission Density Before Bleaching, B” value is “.40” and the “Transmission Density Before Bleaching, G” value was “.00”. Further, the “Transmission Density Before Bleaching, R” value in series [2] (setting [7]) is “.00”.
Consider `CN(C(=O)OCCS(C)(=O)=O)S(=O)(=O)c1ccccc1C(=C1C=C(C(O)(C(F)(F)F)C(F)(F)F)C(=O)c2ccccc21)c1cc2c3c(c1)CCCN3CCC2` [Example 26], for which, in series [4], the “color after decolorization and acidification to pH 1” value is listed as “remained colorless even at pH 1”. Also, the “time to decolorize (in words)” value in series [1] is “substantially instantaneously”. Further, in series [2] (setting [8]), the “Transmission Density Before Bleaching, B” value is on record as “.05”; the “Transmission Density Before Bleaching, G” value is given as “.06”; the “Transmission Density Before Bleaching, R” value was “.19”. In series [2] (setting [9]), the “Transmission Density After Bleaching, B” value is listed as “.02”; the “Transmission Density After Bleaching, G” value is “.00”; the “Transmission Density After Bleaching, R” value is “.02”.
